Reference: patent US20200179426A1, “METHODS OF USE FOR OENOTHEIN A AND B FROM EPILOBIUM SPECIES” (EPILOBIUM, INC., priority 2017, published 2020)

What was measured:
[1] = xanthine oxidase/acetaldehyde spectrophotometric free radical scavenging assay; type: biochemical
Method: The scavenging of free super oxide radicals is quantitated spectrometrically and expressed in terms of percentage of radicals scavenged. Assays were performed with 1% (w/v) and 0.1% (w/v) dilutions of the dried extract, which yielded up to 100% scavenging activity and up to 99% scavenging activity respectively.

[2] = tested on: hen's-egg chorioallantoic membrane (CAM); assay: hen's-egg chorioallantoic membrane (CAM) irritation model with 15% lactic acid as standard irritant; conditions: oenothein B extract at 1% (weight to volume) dilution; applied before the irritant (15% lactic acid), simulating prophylactic use
Method: In the hen's-egg chorioallantoic membrane (CAM) model, in which the CAM is treated with 15% lactic acid as a standard irritant, the development of manifestations of membrane irritation were tracked and scored according to published methods for assessing irritancy. A sample of the oenothein B extract from Canadian Willow herb described in Example 1 was tested at a 1% (weight to volume) dilution for activity in the CAM model.

Question: Which results are given for oenothein B?
Answer: scavenging activity (percentage of superoxide radicals scavenged) ([1]; 0.1% (w/v) dilution of the dried extract): up to 99%; scavenging activity (percentage of superoxide radicals scavenged) ([1]; 1% (w/v) dilution of the dried extract): up to 100%; decrease in irritation [2]: up to 70%
